The text below walks through data of ChEMBL document CHEMBL1136831, “CRF ligands via Suzuki and Negishi couplings of 3-pyridyl boronic acids or halides with 2-benzyloxy-4-chloro-3-nitropyridine” (Bioorg Med Chem Lett, 2003).

SMILES strings stand for the structures.

This experiment has as its target Corticotropin releasing factor receptor (Rattus norvegicus, UniProt P47866+P35353). In words: Binding affinity at Corticotropin releasing factor receptor of rat cortical homogenates.
On to `CCCC(C)n1c(CC)nc2c(-c3ccc(Cl)nc3C)ccnc21` (stereo not drawn), for which the Ki (in general, the dissociation constant of the complex between target and ligand, obtained from inhibition or displacement) was determined as 6.6 nM. The result for `CCc1nc2c(-c3ccc(OC)cc3C)ncnc2n1C(C1CC1)C1CC1` reads 1.9 nM; that for `CCc1nc2c(-c3ccc(OC)nc3C(F)(F)F)ccnc2n1C(C)CC` (stereo not drawn), 0.7 nM. `CCc1nc2c(-c3ccc(Cl)nc3C)ccnc2n1C(CC)C1CC1` (stereo not drawn) registered a Ki of 3.3 nM.

For the compound `CCCC(C)n1c(CC)nc2c(-c3cnc(OC)cc3C)ccnc21` (stereo not drawn), the Ki was 17.1 nM. Consider `CCc1nc2c(-c3ccc(OC)nc3C(F)(F)F)ccnc2n1C(CC)C1CC1` (stereo not drawn), for which the Ki was 0.7 nM.

`CCc1nc2c(-c3ccc(OC)nc3C(F)(F)F)ccnc2n1C(C)C1CCC1` (stereo not drawn): the Ki is 0.8 nM. In turn, `CCc1nc2c(-c3ccc(OC)nc3C)ncnc2n1C(C1CC1)C1CC1` gave a Ki of 1.8 nM. `CCCC(C)n1c(CC)nc2c(-c3ccc(O)nc3C(F)(F)F)ccnc21` (stereo not drawn): the Ki is reported as 602 nM. The result for `CCc1nc2c(-c3ccc(OC)nc3C)ccnc2n1C(C)CC` (stereo not drawn) reads 9.2 nM; that for `CCc1nc2c(-c3ccc(OC)cc3C)ccnc2n1C(CC)C1CC1` (stereo not drawn), 0.5 nM. As for `CCc1nc2c(-c3ccc(OC)nc3C)ccnc2n1C(C)C1CC1` (stereo not drawn), the Ki is on record as 2 nM. This Ki lies about 4-fold higher than the previous one. `CCCC(C)n1c(CC)nc2c(-c3ccc(OCCO)nc3C(F)(F)F)ccnc21` (stereo not drawn) came in with a Ki of 10.1 nM. On to `CCCC(C)n1c(CC)nc2c(-c3ccc(O)nc3C)ccnc21` (stereo not drawn), for which the Ki was more than 10000 nM. Regarding `CCc1nc2c(-c3ccc(N(C)C)nc3C)ccnc2n1C(CC)C1CC1` (stereo not drawn), the Ki was found to be 7.5 nM. `CCc1nc2c(-c3ccc(OC)nc3C(F)(F)F)ccnc2n1C(CC)CCOC` (stereo not drawn) yielded an inhibition constant Ki of 1.6 nM.

With `CCc1nc2c(-c3ccc(OC)nc3C)ccnc2n1C(C)C1CCC1` (stereo not drawn), the Ki amounted to 2.1 nM. `CCCC(C)n1c(CC)nc2c(-c3ccc(OC)nc3C)ccnc21` (stereo not drawn) returned a Ki of 1.1 nM.
